One experiment concerns NAD+ levels in liver. As to the kind of experiment: NAD+ level in liver of mice after a single oral dose (LC/MS), ratio to vehicle control. In kind it is in vivo. Conditions: single oral gavage in PBS, generally 500 mg/ml (in some cases 250 mg/kg or ethanol/PBS/PEG400), fasted male C57/BL6 mice; for ratio of mean NAD+ concentration in treated mice compared to vehicle control mice, 4 hr liver: 4 hr post-dose; for ratio of mean NAD+ concentration in treated mice compared to vehicle control mice, 8 hr liver: 8 hr post-dose; for ratio of mean NAD+ concentration in treated mice compared to vehicle control mice, 24 hr liver: 24 hr post-dose. The method, then:
(§1) As the compounds disclosed herein can act as prodrugs for NMN, their biological activity was assessed in vivo by measuring the ability to elevate NAD+ levels in liver and skeletal muscle. These tissues were selected for pharmacodynamics studies due to their relevance for the treatment of metabolic diseases. In general, C57/BL6 mice were fasted from 16 hours, then administered a […] oral dose of a disclosed compound in PBS buffer by oral gavage. In some cases, the dose was 250 mg/kg or in an alternate vehicle: ethanol/PBS/PEG400 (10/30/60). After dosing, the mice were sacrificed at pre-set time points after dosing (generally 4, 8 and 24 hours). The liver and skeletal tissues were removed and flash frozen. After some period of frozen storage, tissue homogenates were prepared. The level of NAD+ was quantified using LC/MS methods.
(§2) For bioanalysis, a method of standard addition was used to quantify the NAD. Each homogenate was divided and certain aliquots had known concentrations of exogenous NAD added. The NAD present in the original sample was then calculated by linear regression. Data are presented as a ratio of mean NAD concentration in treated mouse tissues to mean NAD concentration in the vehicle control group tissues at the paired time points.
(§3) Mixtures of compound and PBS, pH 7 were formulated ˜1 hour before dosing and remained stirring until dose completion. Residual formulated test materials were stored at −20±5° C. until discarded. Naïve male C57/BL6 mice at ˜25 g at dose initiation, age as appropriate for weight were assigned to dose groups of six animals per dose. Dosing treatments were administered via a single oral gavage dose (PO) The dose volume for each animal (5 mL/kg) was based on the most recent body measurements taken the morning of dosing. Animals were fasted at least 16 hrs prior to dose, with food returned at least 4 hours post dose.
(§4) Liver and skeletal muscle were collected and analyzed for nicotinamide adenine dinucleotide (NAD) at 0, 4, 8, and 24 hours post-dose. For each mouse, the entire liver was removed, rinsed with saline, blotted dry and frozen at −70° C. to store for NAD concentration analysis. Also, the soleus skeletal muscle was removed from the gastrocnemius, rinsed with saline, blotted dry and frozen at −70° C. to store for NAD concentration analysis.
(§5) • 1. Add 5× (tissue wt.*5)mL 0.1M ZnSO4 into all tubes. • 2. Add 5× (tissue wt*5)mL Methanol into all tubes. • 3. Homogenize each sample until completely liquid. • 4. Vortex each sample. Tissue Extraction Procedure • 1. On ice, aliquot 20 μL of standards, control blanks, and matrix blanks into a 96-well plate. • 2. Aliquot 20 μL of sample into sample wells. • 3. Add 1004, of IS in 80:20 Methanol:water into each well, except blanks add 100 μL of blank 80:20 Methanol:Water. • 4. Cover plate and vortex samples. Centrifuge for 10 minutes at 3300 rpm. • 5. Transfer 80 μL of supernatant into a clean 96-well plate. • 6. Add 80 μL of LC-MS water to all wells. • 7. Cover and vortex. The concentration of NAD+ in the tissues was determined by LC/MS. The conditions are as follows:
(§6) The ratio of mean NAD+ concentration in the liver and skeletal tissues of treated mice compared to vehicle control mice are given in Table 5. The data is given for the 4, 8, and 24 hour time points.

Experiment [1] has as its system NAD+ levels in skeletal muscle. Briefly: NAD+ level in skeletal muscle of mice after a single oral dose (LC/MS), ratio to vehicle control. Type of experiment: in vivo. Conditions: soleus skeletal muscle, single oral gavage in PBS, generally 500 mg/ml (in some cases 250 mg/kg or ethanol/PBS/PEG400), fasted male C57/BL6 mice; for ratio of mean NAD+ concentration in treated mice compared to vehicle control mice, 4 hr skeletal: 4 hr post-dose; for ratio of mean NAD+ concentration in treated mice compared to vehicle control mice, 8 hr skeletal: 8 hr post-dose; for ratio of mean NAD+ concentration in treated mice compared to vehicle control mice, 24 hr skeletal: 24 hr post-dose. The method, then:
as §1, §2, §3, §4, §5, §6

Where a name gives a salt, the structure may show the parent alone.

`CCC(CC)COC(=O)C(C)NP(=O)(OCC1O[C@@H]([n+]2cccc(C(N)=O)c2)[C@H](O)[C@@H]1O)Oc1ccccc1` (stereo partly drawn) [Compound 9, 2-Ethylbutyl ((((3S,4R,5R)-5-(3-carbamoyl-1λ^4-pyridin-1-yl)-3,4-dihydroxytetrahydrofuran-2-yl)methoxy)(phenoxy)phosphoryl)alaninate Trifluoroacetate Salt]: in the experiment on NAD+ levels in liver, the “ratio of mean NAD+ concentration in treated mice compared to vehicle control mice, 4 hr liver” value (“ratio … to vehicle control mice, 4 hr liver” below) was 0.8; the “ratio of mean NAD+ concentration in treated mice compared to vehicle control mice, 8 hr liver” value (shortened to “ratio of mean NAD+ concentration … 8 hr liver”) was found to be 0.8; the “ratio of mean NAD+ concentration in treated mice compared to vehicle control mice, 24 hr liver” value (shortened to “ratio of mean NAD+ concentration … 24 hr liver”) worked out at 1.3. Moreover, in experiment [1], the “ratio of mean NAD+ concentration in treated mice compared to vehicle control mice, 4 hr skeletal” value (“ratio … to vehicle control mice, 4 hr skeletal” below) was determined as 1.88; the “ratio of mean NAD+ concentration in treated mice compared to vehicle control mice, 8 hr skeletal” value (from here on “ratio of mean NAD+ concentration … 8 hr skeletal”) was determined as 1.34; the “ratio of mean NAD+ concentration in treated mice compared to vehicle control mice, 24 hr skeletal” value (“ratio … 24 hr skeletal” for short) turned out to be 0.96.
As to `NC(=O)c1ccc[n+]([C@@H]2OC(COP3(=O)OCCC(c4cc(F)cc(F)c4)O3)[C@@H](O)[C@H]2O)c1.O=C([O-])C(F)(F)F` (stereo partly drawn) [Compound 2, 1-((2R,3R,4S)-5-(((4-(3,5-Difluorophenyl)-2-oxido-1,3,2-dioxaphosphinan-2-yl)oxy)methyl)-3,4-dihydroxytetrahydrofuran-2-yl)-1λ^4-pyridine-3-carboxamide Trifluoroacetate Salt], in the experiment with NAD+ levels in liver, the “ratio … to vehicle control mice, 4 hr liver” value is recorded as 2.0; the “ratio of mean NAD+ concentration … 8 hr liver” value came to 1.6; the “ratio of mean NAD+ concentration … 24 hr liver” value was found to be 1.8. For the same compound, in experiment [1], the “ratio … to vehicle control mice, 4 hr skeletal” value was found to be 0.9; the “ratio of mean NAD+ concentration … 8 hr skeletal” value came to 1.0; the “ratio … 24 hr skeletal” value is 1.4.
On to `CC(NP(=O)(OCC1O[C@@H]([n+]2cccc(C(N)=O)c2)[C@H](O)[C@@H]1O)Oc1cccc2ccccc12)C(=O)OCc1ccccc1` (stereo partly drawn) [Compound 8, 1-((2R,3R,4S)-5-(((((1-(Benzyloxy)-1-oxopropan-2-yl)amino)(naphthalen-1-yloxy)phosphoryl)oxy)methyl)-3,4-dihydroxytetrahydrofuran-2-yl)-3-carbamoylpyridin-1-ium Trifluoroacetate Salt], for which, in the experiment with NAD+ levels in liver, the “ratio … to vehicle control mice, 4 hr liver” value is recorded as 1.2; the “ratio of mean NAD+ concentration … 8 hr liver” value stood at 1.0; the “ratio of mean NAD+ concentration … 24 hr liver” value was determined as 0.9. Also, in experiment [1], the “ratio … to vehicle control mice, 4 hr skeletal” value came to 1.0; the “ratio of mean NAD+ concentration … 8 hr skeletal” value came out at 0.8; the “ratio … 24 hr skeletal” value worked out at 0.8.
For `CC(C)OC(=O)[C@H](C)NP(=O)(OCC1O[C@@H]([n+]2cccc(C(N)=O)c2)[C@H](O)[C@@H]1O)Oc1ccccc1` (stereo partly drawn) [Compound 4, Isopropyl ((((3S,4R,5R)-5-(3-carbamoyl-1λ4-pyridin-1-yl)-3,4-dihydroxytetrahydrofuran-2-yl)methoxy)(phenoxy)phosphoryl)-L-alaninate Trifluoroacetate Salt], in the experiment on NAD+ levels in liver, the “ratio … to vehicle control mice, 4 hr liver” value is 1.0; the “ratio of mean NAD+ concentration … 8 hr liver” value is 1.7; the “ratio of mean NAD+ concentration … 24 hr liver” value is 1.8. Moreover, in experiment [1], the “ratio … to vehicle control mice, 4 hr skeletal” value was found to be 0.9; the “ratio of mean NAD+ concentration … 8 hr skeletal” value is recorded as 1.4; the “ratio … 24 hr skeletal” value is 1.1.
As for `CCOP(=O)(OCC)OCC1OC([n+]2cccc(C(N)=O)c2)C(O)C1O` (stereo not drawn) [Compound 19, 3-Carbamoyl-1-(5-(((diethoxyphosphoryl)oxy)methyl)-3,4-dihydroxytetrahydrofuran-2-yl)pyridin-1-ium Chloride], in the experiment with NAD+ levels in liver, the “ratio … to vehicle control mice, 4 hr liver” value was 1; the “ratio of mean NAD+ concentration … 8 hr liver” value is 1; the “ratio of mean NAD+ concentration … 24 hr liver” value was determined as 1. Also, in experiment [1], the “ratio … to vehicle control mice, 4 hr skeletal” value was found to be 0.8; the “ratio of mean NAD+ concentration … 8 hr skeletal” value was found to be 1.2; the “ratio … 24 hr skeletal” value is 0.1.
For the compound `CC(C)(C)C(=O)SCCOP(=O)(NCc1ccccc1)OCC1OC([n+]2cccc(C(N)=O)c2)C(O)C1O` (stereo not drawn) [Compound 6, 1-(5-((((Benzylamino)(2-(pivaloylthio)ethoxy)phosphoryl)oxy)methyl)-3,4-dihydroxytetrahydrofuran-2-yl)-3-carbamoylpyridin-1-ium Trifluoroacetate Salt], in the experiment on NAD+ levels in liver, the “ratio … to vehicle control mice, 4 hr liver” value is given as 4.3; the “ratio of mean NAD+ concentration … 8 hr liver” value is 6.6; the “ratio of mean NAD+ concentration … 24 hr liver” value is reported as 3.5. In experiment [1], the “ratio … to vehicle control mice, 4 hr skeletal” value was found to be 1.3; the “ratio of mean NAD+ concentration … 8 hr skeletal” value came to 1.7; the “ratio … 24 hr skeletal” value came to 2.6.
`CCCCCCCCCCCCCCCOCCCOP(=O)(OC)OCC1OC([n+]2cccc(C(N)=O)c2)C(O)C1O` (stereo not drawn) [Compound 21, 3-Carbamoyl-1-(3,4-dihydroxy-5-(((methoxy(3-(pentadecyloxy)propoxy)phosphoryl)oxy)methyl)tetrahydrofuran-2-yl)pyridin-1-ium Trifluoroacetate Salt]: in the experiment on NAD+ levels in liver, the “ratio … to vehicle control mice, 4 hr liver” value is recorded as 2.2; the “ratio of mean NAD+ concentration … 8 hr liver” value is recorded as 2.1; the “ratio of mean NAD+ concentration … 24 hr liver” value was 1.7. Besides, in experiment [1], the “ratio … to vehicle control mice, 4 hr skeletal” value is 1.3; the “ratio of mean NAD+ concentration … 8 hr skeletal” value came out at 2.4; the “ratio … 24 hr skeletal” value came out at 3.4.

These data come from patent US11464796B2, “Nicotinamide mononucleotide derivatives and their uses” (Metro International Biotech, LLC, priority 2015, dated 2022).
